From ChEMBL document CHEMBL1201862, “PubChem BioAssay data set” (2004)
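Where inhibition never reached the appropriate level, the endpoint shown equals the highest concentration tested. Otherwise, values were interpolated linearly from a five-concentration, 48-hour dose response in 96-well plates. Abbreviation: GI50, concentration required for 50% inhibition of growth.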 Calls of active or inactive are those of the source. No stated cut-off is given here; in the data, active = GI50 up to about 1.1 µM and inactive = higher.

What was measured:
Experiment in all cases: inhibition of tumour cell growth, NCI panel, 48 h
HCT-116 = tested on: HCT-116
K562 = tested on: K562
SN12C = tested on: SN12C
UACC-62 = tested on: UACC-62
HCC 2998 = tested on: HCC 2998
NCI-H23 = tested on: NCI-H23
SNB-75 = tested on: SNB-75
DLD-1 = tested on: DLD-1
SF-539 = tested on: SF-539
Hs-578T = tested on: Hs-578T
SK-MEL-28 = tested on: SK-MEL-28
786-0 = tested on: 786-0
MCF7 = tested on: MCF7
MOLT-4 = tested on: MOLT-4
COLO 205 = tested on: COLO 205
KM12 = tested on: KM12
UO-31 = tested on: UO-31
SF-295 = tested on: SF-295
UACC-257 = tested on: UACC-257
EKVX = tested on: EKVX

Measured: GI50

CC(=O)O.CN1CCN(CN2C(=O)C3C4C=CC(C3C2=O)C2C3C(=O)N(CN5CCN(C)CC5)C(=O)C3C42)CC1 (configuration not stated)
inactive: HCT-116 16.6 µM | K562 22.2 µM | SN12C 21.4 µM | UACC-62 20.7 µM | HCC 2998 22.2 µM | NCI-H23 20.7 µM | SNB-75 23.3 µM | DLD-1 19.1 µM | SF-539 21.1 µM | Hs-578T > 100 µM | SK-MEL-28 28 µM | 786-0 19.9 µM | MCF7 32.3 µM | MOLT-4 20.2 µM | COLO 205 19 µM | KM12 22.3 µM | UO-31 25.2 µM

Cc1ccc(C(=O)/C=C/c2ccccc2O)c(C)c1
inactive: HCT-116 > 100 µM | K562 > 100 µM | SN12C > 100 µM | UACC-62 > 100 µM | SF-295 > 100 µM | HCC 2998 > 100 µM | NCI-H23 > 100 µM | UACC-257 > 100 µM | SNB-75 1.24 µM | DLD-1 > 100 µM | SF-539 > 100 µM | SK-MEL-28 > 100 µM | EKVX > 100 µM | 786-0 > 100 µM | MOLT-4 94.8 µM | COLO 205 > 100 µM | KM12 > 100 µM | UO-31 > 100 µM

O=C1Nc2ccccc2C1(O)C/C(=N/O)c1ccc2ccccc2c1 (configuration not stated)
inactive: HCT-116 > 100 µM | K562 72.6 µM | SN12C > 100 µM | SF-295 > 100 µM | HCC 2998 > 100 µM | NCI-H23 71.9 µM | UACC-257 > 100 µM | SNB-75 28.6 µM | DLD-1 > 100 µM | SF-539 > 100 µM | SK-MEL-28 > 100 µM | EKVX > 100 µM | 786-0 > 100 µM | MOLT-4 64.9 µM | COLO 205 > 100 µM | KM12 > 100 µM | UO-31 75.9 µM

CN(c1ccccc1)C(c1ccccc1)C(O)c1ccccc1 (configuration not stated)
inactive: HCT-116 18.6 µM | K562 17.2 µM | SN12C 17.1 µM | UACC-62 17.9 µM | SF-295 15.8 µM | HCC 2998 22.9 µM | NCI-H23 22.4 µM | UACC-257 19.3 µM | SNB-75 24.1 µM | DLD-1 23.9 µM | SF-539 22.1 µM | SK-MEL-28 20.5 µM | EKVX 25.1 µM | 786-0 18.2 µM | MOLT-4 12.8 µM | COLO 205 16.3 µM | KM12 17.9 µM | UO-31 21.3 µM

Cc1cc(NC(=O)C2C3C=CC(O3)C2C(=O)O)no1 (configuration not stated)
inactive: HCT-116 17 µM | K562 22.2 µM | SN12C 37.6 µM | UACC-62 > 100 µM | SF-295 > 100 µM | HCC 2998 > 100 µM | NCI-H23 > 100 µM | UACC-257 35 µM | SNB-75 > 100 µM | DLD-1 24 µM | SF-539 24 µM | SK-MEL-28 97.7 µM | EKVX > 100 µM | 786-0 17.4 µM | MOLT-4 32.6 µM | COLO 205 17.7 µM | UO-31 > 100 µM

O=C1NC(=O)C(CCC(=O)c2ccc3ccccc3c2)C(=O)N1
inactive: HCT-116 > 100 µM | K562 > 100 µM | SN12C > 100 µM | UACC-62 > 100 µM | SF-295 > 100 µM | HCC 2998 > 100 µM | NCI-H23 > 100 µM | UACC-257 > 100 µM | SNB-75 > 100 µM | DLD-1 > 100 µM | SF-539 > 100 µM | SK-MEL-28 > 100 µM | EKVX > 100 µM | 786-0 > 100 µM | MOLT-4 > 100 µM | COLO 205 > 100 µM | KM12 > 100 µM | UO-31 > 100 µM

C=CCC1(C(=O)OC(C)(C)C)C(OC)=C(C(=O)OC(C)(C)C)C2C1C(C(=O)OC(C)(C)C)=C(OC)C2(CC=C)C(=O)OC(C)(C)C (configuration not stated)
inactive: K562 > 100 µM | SN12C > 100 µM | UACC-62 > 100 µM | SF-295 > 100 µM | HCC 2998 > 100 µM | NCI-H23 > 100 µM | UACC-257 > 100 µM | SNB-75 > 100 µM | DLD-1 > 100 µM | SF-539 > 100 µM | SK-MEL-28 > 100 µM | EKVX > 100 µM | 786-0 > 100 µM | MOLT-4 > 100 µM | COLO 205 > 100 µM | KM12 > 100 µM | UO-31 > 100 µM
